Measured values from US9273095B2, “Antibiotic peptide and preparation method therefor and application therefor” (priority 2011, dated 2016).
Marks after values point to notes of the source that are not given here. Non-standard residues stand in square brackets, D forms with d. Residues, ends and D or L forms follow the SMILES beside them.

Legend:
Format in all cases: in vivo, ICR mice
Pseudomonas aeruginosa = assay: Therapeutic test of injection on mice with systemic infection, survival time; details: for Mean survival Time: observed fourteen days; for Mean survival Time / Mortality of mice in different days after infection: n = 10
Description: (§1) There are 30 male and 30 female ICR mice with the weight ranging from 18 g to 22 g. According to their weight, they are randomly divided into 6 groups of 10 mice: blank control group, negative control group, Levofloxacin positive control group, PL-13 (SEQ ID NO: 1) high dose group, PL-13 (SEQ ID NO: 1) middle dose group and PL-13 (SEQ ID NO: 1) low dose group. Each group is raised in the same plastic case. With trinitrophenal marking method, all the mice are raised with ordinary animal feeds in the ordinary animal houses and they can drink water freely. Alternating of light and dark is conducted every 12 hours.
(§2) 2. Infected Strains: Pseudomonas aeruginosa and Staphylococcus aureus
(§3) PL-18 (SEQ ID NO: 1) freeze-dried powder injections (supplied by Jiangsu ProteLight Pharmaceutical & Biotechnology Co., LTD.), Levofloxacin Hydrochloride and Sodium Chloride Injection (supplied by Yangtze River Pharmaceutical Group) and 0.9% Sodium Chloride Injection (supplied by Chifeng Rongjitang Pharmaceutical CO., Ltd.)
(§4) (1) The preparation of bacterial suspension is the same as above.
(§5) (2) The Pseudomonas aeruginosa suspension cultured overnight is diluted to 1×10^9CFU/ml. The Staphylococcus aureus suspension cultured overnight is diluted to 1×10^8CFU/ml. They are all applied in reserve.
(§6) (3) Except the blank control group, every other mouse is injected with 0.2 ml Pseudomonas aeruginosa suspension with the concentration of 1×10^9CFU/ml or 0.2 ml Staphylococcus aureus suspension with the concentration of 1×10^8CFU/ml intraperitoneally to make model.
(§7) (4) Administration: Inject the drugs according to weight right after the model is ready. All the groups excepting the blank and the negative infected group are injected with different dosage of different injections through caudal vena twice a day successively for three days, and they are observed for fourteen days.
(§8) (5) Observe death of the animals and record their survival time.

Staphylococcus aureus = assay: as above; details: for Mean survival Time: observed fourteen days; for Mean survival Time / Mortality of mice in different days after infection: n = 10
Description: as §1, §2, §3, §4, §5, §6, §7, §8

[1] = system: Candida albicans and Escherichia; assay: Therapeutic experiment of injection on mice with multiple mixed infections, survival time; details: for Mean survival Time / average survival time: observed fourteen days; for Mean survival Time / Mortality of mice in different days after infection: n = 20; for average survival time: injection through caudal vena twice a day for three days
Description: There are 60 male and 60 female ICR mice with the weight ranging from 18 g to 22 g. According to their weight, they are randomly divided into 6 groups of 20 mice: blank control group, negative control group, Levofloxacin positive control group, and high, middle and low dose of PL-18 (SEQ ID NO: 1) group. With trinitrophenal marking method, all the mice are raised with ordinary animal feeds in the ordinary animal houses and they can drink water freely. Alternating of light and dark is conducted every 12 hours.
2. Infected Strains: Candida albicans and Escherichia
PL-18 (SEQ ID NO: 1) freeze-dried powder injection (supplied by Jiangsu ProteLight Pharmaceutical & Biotechnology Co., LTD.), Levofloxacin Hydrochloride and Sodium Chloride Injection (supplied by Yangtze River Pharmaceutical Group) and 0.9% Sodium Chloride Injection (supplied by Chifeng Rongjitang Pharmaceutical CO., Ltd.)
as §4
(2) The Candida albicans suspension cultured overnight is diluted to 1×10^6CFU/ml with Sodium Chloride and 5×10^5CFU of which is injected into abdominal cavity of every mouse; the Escherichia suspension cultured overnight is diluted to 2×10^8CFU/ml and 1×10^7CFU of which is injected into abdominal cavity of every mouse to make model with mixed infections.
(3) The blank control group is injected with normal saline into their abdominal cavity, the positive control group is injected with Levofloxacin into their abdominal cavity.
(4) Administration: The drugs are administered according to weight right after the model is ready. All the groups except the blank and the infected negative control group are injected with different dosage of different injections through caudal vena twice a day successively for three days, and they are observed for fourteen days.
as §8

[2] = 0.2 mg/kg (low) caudal vena twice a day for three days
[3] = 1 mg/kg (middle) caudal vena twice a day for three days
[4] = 5 mg/kg (high) caudal vena twice a day for three days
[5] = day 1, 0.2 mg/kg (low) caudal vena twice a day for three days
[6] = day 1, 1 mg/kg (middle) caudal vena twice a day for three days
[7] = day 1, 5 mg/kg (high) caudal vena twice a day for three days
[8] = day 2, 0.2 mg/kg (low) caudal vena twice a day for three days
[9] = day 2, 1 mg/kg (middle) caudal vena twice a day for three days
[10] = day 2, 5 mg/kg (high) caudal vena twice a day for three days
[11] = day 3, 0.2 mg/kg (low) caudal vena twice a day for three days
[12] = day 3, 1 mg/kg (middle) caudal vena twice a day for three days
[13] = day 3, 5 mg/kg (high) caudal vena twice a day for three days
[14] = day 4, 0.2 mg/kg (low) caudal vena twice a day for three days
[15] = day 4, 1 mg/kg (middle) caudal vena twice a day for three days
[16] = day 4, 5 mg/kg (high) caudal vena twice a day for three days
[17] = day 5, 0.2 mg/kg (low) caudal vena twice a day for three days
[18] = day 5, 1 mg/kg (middle) caudal vena twice a day for three days
[19] = day 5, 5 mg/kg (high) caudal vena twice a day for three days
[20] = 30 mg/kg twice a day for three days
[21] = day 1, 30 mg/kg twice a day for three days
[22] = day 2, 30 mg/kg twice a day for three days
[23] = day 3, 30 mg/kg twice a day for three days
[24] = day 4, 30 mg/kg twice a day for three days
[25] = day 5, 30 mg/kg twice a day for three days

SMILES: CC(=O)N[C@H](Cc1ccccc1)C(=O)N[C@H](CCCCN)C(=O)N[C@H](CCCCN)C(=O)N[C@H](CC(C)C)C(=O)N[C@H](CCCCN)C(=O)N[C@H](CCCCN)C(=O)N[C@H](CC(C)C)C(=O)N[C@H](Cc1ccccc1)C(=O)N[C@H](CO)C(=O)N[C@H](CCCCN)C(=O)N[C@H](CC(C)C)C(=O)N[C@H](Cc1c[nH]c2ccccc12)C(=O)N[C@H](CC(N)=O)C(=O)N[C@H](Cc1c[nH]c2ccccc12)C(=O)N[C@H](CCCCN)C(N)=O [PL-18] (Ac-[dF][dK][dK][dL][dK][dK][dL][dF][dS][dK][dL][dW][dN][dW][dK]-NH2)
- Mean survival Time (Pseudomonas aeruginosa; [2]): 6.7** day
- Mean survival Time (Pseudomonas aeruginosa; [3]): 7.7** day
- Mean survival Time (Pseudomonas aeruginosa; [4]): 8.6** day
- Mortality of mice in different days after infection (Pseudomonas aeruginosa; [5]): 0
- Mortality of mice in different days after infection (Pseudomonas aeruginosa; [6]): 0
- Mortality of mice in different days after infection (Pseudomonas aeruginosa; [7]): 0
- Mortality of mice in different days after infection (Pseudomonas aeruginosa; [8]): 2
- Mortality of mice in different days after infection (Pseudomonas aeruginosa; [9]): 1
- Mortality of mice in different days after infection (Pseudomonas aeruginosa; [10]): 1
- Mortality of mice in different days after infection (Pseudomonas aeruginosa; [11]): 1
- Mortality of mice in different days after infection (Pseudomonas aeruginosa; [12]): 2
- Mortality of mice in different days after infection (Pseudomonas aeruginosa; [13]): 2
- Mortality of mice in different days after infection (Pseudomonas aeruginosa; [14]): 2
- Mortality of mice in different days after infection (Pseudomonas aeruginosa; [15]): 2
- Mortality of mice in different days after infection (Pseudomonas aeruginosa; [16]): 2
- Mortality of mice in different days after infection (Pseudomonas aeruginosa; [17]): 2
- Mortality of mice in different days after infection (Pseudomonas aeruginosa; [18]): 1
- Mortality of mice in different days after infection (Pseudomonas aeruginosa; [19]): 0
- anti-infection effect (in words) (Pseudomonas aeruginosa; high, middle and low dose injection, systemic infection of Pseudomonas aeruginosa): very good
- Mean survival Time (Staphylococcus aureus; [2]): 6.3** day
- Mean survival Time (Staphylococcus aureus; [3]): 7.3** day
- Mean survival Time (Staphylococcus aureus; [4]): 9.9** day
- Mortality of mice in different days after infection (Staphylococcus aureus; [5]): 1
- Mortality of mice in different days after infection (Staphylococcus aureus; [6]): 1
- Mortality of mice in different days after infection (Staphylococcus aureus; [7]): 0
- Mortality of mice in different days after infection (Staphylococcus aureus; [8]): 2
- Mortality of mice in different days after infection (Staphylococcus aureus; [9]): 2
- Mortality of mice in different days after infection (Staphylococcus aureus; [10]): 1
- Mortality of mice in different days after infection (Staphylococcus aureus; [11]): 1
- Mortality of mice in different days after infection (Staphylococcus aureus; [12]): 1
- Mortality of mice in different days after infection (Staphylococcus aureus; [13]): 1
- Mortality of mice in different days after infection (Staphylococcus aureus; [14]): 2
- Mortality of mice in different days after infection (Staphylococcus aureus; [15]): 1
- Mortality of mice in different days after infection (Staphylococcus aureus; [16]): 1
- Mortality of mice in different days after infection (Staphylococcus aureus; [17]): 1
- Mortality of mice in different days after infection (Staphylococcus aureus; [18]): 1
- Mortality of mice in different days after infection (Staphylococcus aureus; [19]): 2
- anti-infection effect (in words) (Staphylococcus aureus; high, middle and low dose injection, systemic infection of Staphylococcus aureus): very good
- Mean survival Time [1, 2]: 4.4* day
- Mean survival Time [1, 3]: 5.7** day
- curative effect on mice with multiple mixed infection (in words) ([1]; 1 mg/kg dosage injection): best curative effect
- Mean survival Time [1, 4]: 5.3** day
- Mortality of mice in different days after infection [1, 5]: 4
- Mortality of mice in different days after infection [1, 6]: 5
- Mortality of mice in different days after infection [1, 7]: 5
- Mortality of mice in different days after infection [1, 8]: 4
- Mortality of mice in different days after infection [1, 9]: 4
- Mortality of mice in different days after infection [1, 10]: 5
- Mortality of mice in different days after infection [1, 11]: 5
- Mortality of mice in different days after infection [1, 12]: 3
- Mortality of mice in different days after infection [1, 13]: 2
- Mortality of mice in different days after infection [1, 14]: 2
- Mortality of mice in different days after infection [1, 15]: 2
- Mortality of mice in different days after infection [1, 16]: 1
- Mortality of mice in different days after infection [1, 17]: 2
- Mortality of mice in different days after infection [1, 18]: 0
- Mortality of mice in different days after infection [1, 19]: 2
- average survival time ([1]; high dosage group): 5.3 days
- average survival time ([1]; low dosage group): 4.4 days
- average survival time ([1]; middle dosage group): 5.7 days

SMILES: C[C@H]1COc2c(N3CCN(C)CC3)c(F)cc3c(=O)c(C(=O)O)cn1c23 [Levofloxacin, levofloxacin, reference compound]
- Mean survival Time (Pseudomonas aeruginosa; [20]): 6.4** day
- Mortality of mice in different days after infection (Pseudomonas aeruginosa; [21]): 4
- Mortality of mice in different days after infection (Pseudomonas aeruginosa; [22]): 2
- Mortality of mice in different days after infection (Pseudomonas aeruginosa; [23]): 0
- Mortality of mice in different days after infection (Pseudomonas aeruginosa; [24]): 0
- Mortality of mice in different days after infection (Pseudomonas aeruginosa; [25]): 0
- Mean survival Time (Staphylococcus aureus; [20]): 5.4** day
- Mortality of mice in different days after infection (Staphylococcus aureus; [21]): 5
- Mortality of mice in different days after infection (Staphylococcus aureus; [22]): 2
- Mortality of mice in different days after infection (Staphylococcus aureus; [23]): 0
- Mortality of mice in different days after infection (Staphylococcus aureus; [24]): 0
- Mortality of mice in different days after infection (Staphylococcus aureus; [25]): 0
- Mean survival Time ([1]; 30 mg/kg): 3.9* day
- Mortality of mice in different days after infection ([1]; day 1, 30 mg/kg): 8
- Mortality of mice in different days after infection ([1]; day 2, 30 mg/kg): 6
- Mortality of mice in different days after infection ([1]; day 3, 30 mg/kg): 2
- Mortality of mice in different days after infection ([1]; day 4, 30 mg/kg): 0
- Mortality of mice in different days after infection ([1]; day 5, 30 mg/kg): 0
